From patent US6955907B1, “Alkaline, protease VapK suitable for laundry detergent, VapK gene, recombinant expression vector, and transformed microorganisms” (priority 1999, dated 2005)
“Also recorded” adds a separate entry of the source.

Tests used:
protease VapK [1] = assay: Effects of inhibitors on the activity of the protease VapK; format: biochemical, Vibrio metschnikovii KS1
Description: (§1) The activity of the alkaline protease was determined by the method of Yanagida et al with minor modifications. The reaction mixture was prepared by mixing 100 mM sodium carbonate solution with the supernatant formed after centrifuging the culture broth at 6,000 rpm for 15 minutes. 0.5 ml of the fermentation broth was mixed with 2.5 ml of 1% prewarmed casein solution in 100 mM sodium carbonate buffer (pH 10.5). The resulting mixture was incubated at 37° C. for 10 minutes. The reaction was terminated by adding a solution consisting 0.22 M trichloroacetic acid, 0.22 M sodium acetate and 0.22 M acetic acid. The reaction mixture was placed on ice for 10 minutes followed by centrifugation. 1 ml of the supernatant was mixed with 9 ml of distilled water. The optical density (O.D.) was measured at 280 nm. The result is indicated as unit. One unit of the enzyme is defined as the amount of protein which produces an increase of 0.1 absorbance unit under the assay conditions.

protease VapK [2] = assay: Resistance of the protease VapK to surfactants (N-succinyl-ala-ala-pro-phe-p-nitroanilide substrate); format: biochemical, Vibrio metschnikovii KS1; conditions: for Relative Residual Activity (%): 25° C. for 25 minutes, relative to activity without surfactant
Description: In addition, the resistance of the protease VapK to various surfactants was tested. The enzyme sample was appropriately diluted in distilled water. The diluted solution was mixed with each surfactant in the same ratio. The mixture was reacted at 25° C. for 25 minutes. A substrate solution of 5 mM N-succinyl-ala-ala-pro-phe-p-nitroanilide in 1 M tris-HCl, pH 9.0 was added to the reaction mixture in the ratio of 1 to 10. The reaction mixture was reacted at 25° C. for 30 minutes. The optical density of the reaction mixture was measured at 410 nm to determine the enzymatic activity of the protease VapK.

[3] = format: biochemical
Description: It can be seen from the above results that the vapk gene contained in the recombinant plasmid pSB1 was expressed in E. coli HB 101 and the expressed protease VapK was secreted extracellularly. […] (FIG. 9).

casein = assay: Alkaline protease activity of culture broth (casein method of Yanagida et al, modified); format: biochemical
Description: as §1
E. coil HB101 harboring the plasmid pSB1 was cultured in an LB medium. The culture broth was recovered and subjected to electrophoresis. As a result (FIG. 8), the expressed protease VapK was detected at the 27 kDa band. In addition, the proteolytic activity of the enzyme was measured.

[4] = inhibitor 1 mM, pre-reacted 20 minutes at 4° C.
[5] = inhibitor 1 mM, pre-reacted 20 minutes at 20° C.

Molecule: O=C(O)CN(CCN(CC(=O)O)CC(=O)O)CC(=O)O [EDTA, ethylenediamine tetraacetic acid]
- Relative Activity (%) (protease VapK [1]; inhibitor 100 mM, pre-reacted 20 minutes at 4° C.): 86%
- Relative Activity (%) (protease VapK [1]; inhibitor 100 mM, pre-reacted 20 minutes at 20° C.): 100%

Molecule: O=C(O)CN(CCOCCOCCN(CC(=O)O)CC(=O)O)CC(=O)O [EGTA, ethyleneglycol-bis(β-aminoethyl ether)N,N,N′,N′-tetraacetic acid]
- Relative Activity (%) (protease VapK [1]; [4]): 100%
- Relative Activity (%) (protease VapK [1]; [5]): 100%

Molecule: N[C@@H](CS)C(=O)O [L-cysteine]
- Relative Activity (%) (protease VapK [1]; [4]): 99%
- Relative Activity (%) (protease VapK [1]; [5]): 100%

Molecule: O=S(=O)(F)Cc1ccccc1 [PMSF, phenylmethanesulfonyl fluoride]
- inhibition of the enzymatic activity of the protease VapK (in words) (protease VapK [1]): inhibited
- Relative Activity (%) (protease VapK [1]; [4]): 6%
- Relative Activity (%) (protease VapK [1]; [5]): 13%

Molecule: CCCCCCCCCCCCOS(=O)(=O)[O-].[Na+] [SDS, sodium dodecyl sulfate]
- Relative Residual Activity (%) (protease VapK [2]; surfactant 1000 ppm): >100%
- Relative Residual Activity (%) (protease VapK [2]; surfactant 1500 ppm): <70%

Molecule: Polyoxyethylene Alkylether [Polyoxyethylene Alkylether (EO = 15 mol)]
- Relative Residual Activity (%) (protease VapK [2]; surfactant 30000 ppm): >100%

Molecule: Sodium-α-olefin sulfonate [AOS]
- Relative Residual Activity (%) (protease VapK [2]; surfactant 10000 ppm): >100%
- Relative Residual Activity (%) (protease VapK [2]; surfactant 15000 ppm): >70%

B1: VapK: alkaline serine protease of 27 kDa produced by Vibrio metschnikovii KS1, amino acid sequence SEQ ID NO. 1 (protein, listed as Vibrio metschnikovii)
chain: MFKKNVNRTVLAGLLLPTSISLAIASQLKDQEVPSFTPSVAVENHQTEQRYFVTYVPGATSGPMRMSQNGLTETDFSLQKAADILSTQQVTVINHLESLHTSVVRVTPTQAKQLLDNADVAMIEVDPIRYLFDAEIEPYAQQTPYGIRMVQADQLSDVYAANRKVCVIDSGYLRNHVDLPSAGVTGSTFSGHGSWFTDGNGHGTHVAGTIVALDNNVGVVGVLPSGLVGLHNVKIFNDSGVWTRASDLIQAIQSCQSAGSHVVNMSLGGSQGSVTEQKPMRNFYQQGMLLVAAAGNSGNSGFSYPASYDAVVSVAAVNSSGNVANFSQFNSQVELSAPGVGVLSTGNNGGYLSYSGTSMASPHVAGVAALVWSHFPQCRPERIRQSLSQTALDRGAAGRDNFYGWGIVQARRAYNWLSRNGC
- influence of temperature on stability [3]: influenced slightly
- pH of optimum activity [3]: 10.5
- stability over pH [3]: stability in the entire pH range
- temperature of optimum activity [3]: 50 °C
- Activity (proteolytic activity of expressed Vap K) (casein; Strain E. coli HB 101 harboring plasmid pSB1, LB medium culture broth): 30.3 unit/ml
- Activity (proteolytic activity of expressed Vap K) (casein; Strain Vibrio metschnikovii KS1, culture broth): 956.2 unit/ml
- resistance / stability to surfactants (in words) (protease VapK [2]; surfactants such as LAS, SDS, AOS, polyoxyethylene alkylether): very resistant; also recorded: high resistance; also recorded: very stable
